{"source": "patent US20060252670A1", "about": "“Method of reducing drug-induced adverse side effects in a patient” (Intercept Pharmaceuticals Inc., priority 2004, published 2006)", "key": {"[1]": {"tested_on": "primary cultures of rat HSCs", "assay": "PPARγ expression in primary cultures of rat HSCs with FXR ligands (qRT-PCR, Western blot)", "type": "cell-based", "experimental": "However, whether or not FXR interacts with PPARγ, has so far been unknown. In order to investigate if FXR interacts with PPARγ, in vitro studies were performed on primary cultures of rat HSCs and HSC-T6 (i.e., a rat immortalised HSCs line). Primary rat HSCs were isolated from control and cirrhotic rats according to techniques known in the art. […] Cells were cultured at 37° C. in an atmosphere of 5% CO2 in Dulbecco's modified minimal essential medium (Gibco BRL Life Technologies, Rockville, Md.) containing 10% fetal calf serum (FCS), 2 mM L-glutamine, and 5,000 IU/ml penicillin/[…] streptomycin. […] HSCs were incubated with or without 6-ECDCA, 1 μM, for 24 hours at 37° C. in DMEM. […] The proteins were then transferred to nitrocellulose membranes (Biorad, Hercules, Calif.) and probed with primary antibodies to FXR and PPARγ (Santa Cruz Biotechnology, Santa Cruz, Calif.).\nPPARγ expression normally decreases during HSC trans-differentiation. […] To further investigate whether ligands of FXR and PPARγ might cooperate in repressing α1 (1) collagen gene expression, HSC-T6 were exposed to effective concentrations of the two ligands."}, "[2]": {"tested_on": "liver fibrosis", "assay": "Gene expression in three rat models of liver fibrosis (porcine serum, BDL, CCl4) treated with FXR ligand", "type": "in vivo", "details": "rats, 3 mg/kg", "experimental": "In order to further investigate whether in vivo administration of FXR ligands would modulate the expression of PPARγ, three different models of liver fibrosis were used, i.e., porcine serum administration, bile duct ligation (BDL), and CCL4 intoxication. Male Wistar rats (200-250 g) were obtained from Charles River Breeding Laboratories (Monza, Italy) and maintained on standard laboratory rat chow on a 12 hour light/dark cycle. […] (2004) Gastroenterology 14:1444-1356). […] At the end of the study, rats were sacrificed under anaesthesia with sodium pentobarbital (50 mg/kg, i.p.) and terminally bled via cardiac puncture. The liver was removed for examination and blood samples were taken. In the second model, hepatic fibrosis was induced by bile duct ligation (BDL) of 8-9 weeks old male Wistar rats (see Fiorucci et al. (2004) Gastroenterology 14:1444-1356 and Fiorucci et al. (2004) Hepatology 39:365-75). Sham operated rats (n=6) received the same laparoscopic procedure, except that the bile duct was manipulated, but not ligated and sectioned. A total of 24 animals were operated. […] Animals were then treated for 14 days. […] Control rats were injected i.p. with 100 μl/100 g body weight of paraffin oil alone."}, "[3]": {"tested_on": "liver fibrosis induced by porcine serum", "assay": "Liver fibrosis induced by 8-week porcine serum administration to rats: 6-ECDCA, rosiglitazone and combination", "type": "in vivo, rat", "details": "for ALP / ALT / Bilirubin / Liver/b.w.: porcine serum rats, 8 weeks, mean ± SE", "experimental": "To investigate whether 6-ECDCA was effective in regulating PPARγ expression, porcine serum-administered rats (6-8 each group) were randomized to receive 1 and 3 mg/kg 6-ECDCA via gavage 5 times a week. Control rats were administered 3% carboxy-methyl cellulose (CMC) by gavage. At the end of the study, rats were sacrificed under anaesthesia with sodium pentobarbital (50 mg/kg, i.p.) and terminally bled via cardiac puncture. The liver was removed for examination and blood samples were taken.\nGroups and duration of treatment are described in Table 1 below. Animals were followed for 8 weeks.\nCollagen surface density was quantified using a computerized image analysis system (Image Acquisition System Ver. 005, Delta Sistemi, Rome, Italy) (see Fiorucci et al., supra). Hepatic and urinary content of hydroxyproline were determined by HPLC (LC Varian Prostar HPLC, Varian, Rome, Italy) as described in Fiorucci et al. (supra). The ANOVA followed by Dunnett or Bonferroni correction for multiple comparison were applied when appropriate during statistical analysis. EC50 were calculated using Prism III (Graphpad Software. Inc., San Diego, Calif.)."}, "[4]": {"details": "cited from earlier work"}, "[5]": {"assay": "Type II diabetic obese patient switched from rosiglitazone to 6ECDCA plus rosiglitazone", "type": "in vivo, human", "details": "rosiglitazone 8 mg daily 4 weeks then 4 mg daily 6 weeks by mouth", "experimental": "The patient is started on a combination of 6ECDCA (150 mg) and rosiglitizone (2 mg) daily by mouth."}}, "note": "Read-outs that look alike come from different tables or passages of the source.", "data": [{"molecule": "CC[C@H]1[C@@H](O)[C@@H]2[C@H](CC[C@]3(C)[C@@H]([C@H](C)CCC(=O)O)CC[C@@H]23)[C@@]2(C)CC[C@@H](O)C[C@@H]12", "note": "[6-ECDCA]", "values": [{"measurement": "increase in PPARγ mRNA and protein", "setting": "[1]; primary HSCs grown seven days, 1 μM", "value": 40, "unit": "fold"}, {"measurement": "increase of FXR mRNA", "setting": "[2]", "value": 1.8, "unit": "fold"}, {"measurement": "increase of SHP mRNA", "setting": "[2]", "value": 4, "unit": "fold"}, {"measurement": "expression of selected pro-fibrogenetic markers (α-SMA, fibronectin, TGFP1)", "setting": "[3]; 1 mg/kg", "value": "reduced"}, {"measurement": "histological score and liver hydroxyproline content", "setting": "[3]; 1 mg/kg, in comparison to porcine serum alone", "value": "slightly reduced"}, {"measurement": "protection against development of liver fibrosis", "setting": "[3]; 3 mg/kg", "value": "effectively protected"}, {"measurement": "increase of liver PPARγ mRNA", "setting": "[3]; 3 mg/kg alone", "value": "3-4 fold"}, {"measurement": "increase of hepatic expression of UCP-2", "setting": "[3]; 3 mg/kg, P<0.05 versus control and porcine serum alone", "value": "2-4 fold"}, {"measurement": "liver function as measured by plasma ALT, alkaline phosphatase and bilirubin", "setting": "[3]; 1 and 3 mg/kg, P>0.05 versus control and porcine serum-treated rats", "value": "did not affect liver function"}, {"measurement": "ALP", "setting": "[3]; oral 1 mg/kg (each drug)", "value": "26.6 ± 2.5", "unit": "U/dl"}, {"measurement": "ALT", "setting": "[3]; oral 1 mg/kg (each drug)", "value": "47.4 ± 2.4", "unit": "U/L"}, {"measurement": "Bilirubin", "setting": "[3]; oral 1 mg/kg (each drug)", "value": "0.3 ± 0.01", "unit": "mg/dL"}, {"measurement": "Liver/b.w.", "setting": "[3]; oral 1 mg/kg (each drug)", "value": "3.8 ± 0.3", "unit": "%"}, {"measurement": "ALP", "setting": "[3]; oral 3 mg/kg (each drug)", "value": "21.8 ± 5.2", "unit": "U/dl"}, {"measurement": "ALT", "setting": "[3]; oral 3 mg/kg (each drug)", "value": "41.9 ± 5.3", "unit": "U/L"}, {"measurement": "Bilirubin", "setting": "[3]; oral 3 mg/kg (each drug)", "value": "0.2 ± 0.01", "unit": "mg/dL"}, {"measurement": "Liver/b.w.", "setting": "[3]; oral 3 mg/kg (each drug)", "value": "2.9 ± 0.2", "unit": "%"}]}, {"molecule": "CC(C)c1onc(-c2c(Cl)cccc2Cl)c1COc1ccc(/C=C/c2cccc(C(=O)O)c2)c(Cl)c1", "note": "[GW4064, reference compound]", "values": [{"measurement": "downregulation of PPAR-γ caused by HSCs activation", "setting": "[1]; primary HSCs", "value": "prevented the downregulation"}]}, {"molecule": "CCc1ccc(CCOc2ccc(CC3SC(=O)NC3=O)cc2)nc1", "note": "(centres unmarked) [pioglitazone]", "values": [{"measurement": "combined incidence of edema", "setting": "[4]; 15 or 30 mg/day in combination with insulin (Rubin et al. 1999)", "value": 15.3, "unit": "%"}]}, {"molecule": "CN(CCOc1ccc(CC2SC(=O)NC2=O)cc1)c1ccccn1", "note": "(centres unmarked) [rosiglitazone]", "values": [{"measurement": "edema", "setting": "[5]", "value": "signs of increasing peripheral edema"}, {"measurement": "weight gained since initiating TZD therapy", "setting": "[5]", "value": 6, "unit": "kg"}, {"measurement": "incidence of edema", "setting": "[4]; 4 mg/day in combination with insulin (Raskin et al. 2001)", "value": 13.1, "unit": "%"}, {"measurement": "incidence of edema", "setting": "[4]; 8 mg/day in combination with insulin (Raskin et al. 2001)", "value": "about 16.2%"}]}]}
